# Test results from patent US20250346579A1, “PYRIDAZINONE COMPOUND AND PREPARATION METHOD THEREFOR, PHARMACEUTICAL COMPOSITION THEREOF, AND APPLICATION THEREOF” (CHINA PHARMACEUTICAL UNIVERSITY, priority 2021, published 2025).
# Target: T1, PARP7 (Homo sapiens, UniProt Q7Z3E1)
# T1 construct: purchased BPS Bioscience
# T1 sequence (Q7Z3E1 1-657): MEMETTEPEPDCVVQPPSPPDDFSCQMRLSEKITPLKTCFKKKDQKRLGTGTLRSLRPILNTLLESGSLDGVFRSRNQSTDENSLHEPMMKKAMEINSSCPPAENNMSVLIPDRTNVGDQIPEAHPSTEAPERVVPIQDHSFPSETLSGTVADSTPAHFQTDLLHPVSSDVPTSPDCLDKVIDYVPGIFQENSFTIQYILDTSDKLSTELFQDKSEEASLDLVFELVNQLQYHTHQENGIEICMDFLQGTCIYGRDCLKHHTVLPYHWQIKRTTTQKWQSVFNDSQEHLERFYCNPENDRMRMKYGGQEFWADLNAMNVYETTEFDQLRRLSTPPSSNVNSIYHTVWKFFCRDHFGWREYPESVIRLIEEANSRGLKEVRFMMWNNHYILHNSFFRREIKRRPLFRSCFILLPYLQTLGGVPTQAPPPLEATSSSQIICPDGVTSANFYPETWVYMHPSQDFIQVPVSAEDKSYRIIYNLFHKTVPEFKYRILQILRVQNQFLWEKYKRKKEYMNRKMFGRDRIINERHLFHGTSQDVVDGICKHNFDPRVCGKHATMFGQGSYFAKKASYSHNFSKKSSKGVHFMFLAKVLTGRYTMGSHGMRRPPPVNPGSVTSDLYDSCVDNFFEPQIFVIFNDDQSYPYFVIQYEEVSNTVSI
# Assay: Inhibitory activity of compounds on PARP7 enzyme (PARP7 Chemiluminescent Assay Kit)
# Format: biochemical
# Conditions: chemiluminescence, symbols defined as IC50 classes, read-out: 100 nM Inhibition Rate
# Protocol: Experimental materials: PARP7 Chemiluminescent Assay Kit, BPS Bioscience; DMSO, China National Pharmaceutical Group, Nivo, PerkinElmer.
# (1) Preparation of Solutions and Buffers:
# Preparation of 10×PBS: 720 mg of KH2PO4, 45 g of NaCl and 5.311 g of Na2HPO4·12H2O were weighed respectively and dissolved in 500 mL of deionized water, a system pH value was adjusted to 7.4, sterilization was performed at 121° C. for 30 min, and the system after cooling was placed at 4° C. for later use.
# Preparation of 1×PBS: 10×PBS was diluted 10 times with deionized water, that is, 9 parts of deionized water was added to 1 part of 10×PBS for dilution.
# Preparation of wash buffer: 1×PBS contained 0.05% Tween-20.
# Preparation of 1×PARP buffer (prepared freshly before use): 10×PARP buffer was diluted 10 times with deionized water and placed on ice for later use.
# (2) Preparation of Compound Working Solution Concentration:
# According to test requirements, a compound to be tested is diluted with 100% DMSO to a desired concentration, and then diluted 10 times with 1×PARP buffer to prepare a 10× compound working solution.
# a. 5× histone mixture was thawed on ice one day prior to the experiment;
# b. preparation of 1× histone mixture: 1× histone mixture was prepared through the 5× histone mixture by using 1×PBS; and 25 μL of 1× histone mixture was taken from each well and transferred into a test well plate and incubated overnight at 4° C.;
# c. 100 μL of Blocking buffer was taken from each well and added to the test well plate and incubated for 90 min at 25° C.;
# d. after the incubation was completed, the liquid in the test well plate was spin-dried, and the test well plate was washed repeatedly for 3 times;
# e. 2.5 μL of the compound working solution was taken from each well and added to the test well plate according to an experimental layout diagram; and 1×PARP buffer with a corresponding volume of 10% DMSO was added to positive control wells (Positive Control), and 1×PARP buffer of a corresponding volume was added to blank control wells (Blank);
# f. after the enzyme was completely dissolved, an enzyme stock solution was diluted with 1×PARP buffer to 6 ng/μL;
# g. 10 μL of enzyme solution was taken from each well and added to the test well plate, the blank control wells were added with the corresponding volume of 1×PARP buffer, and in which case, the enzyme amount was 60 ng per well. Note: this step needs to be performed on ice;
# h. 12.5 μL of master mixture was added to each well of the test well plate (12.5 μL master mixture included 1.25 μL of 10×PARP buffer, 1.25 μL of Opti-PARP 10× Assay mixture and 10 μL of water); the test well plate was sealed and incubated at 25° C. for 60 min;
# i. after the incubation was completed, the liquid in the test well plate was spin-dried, and the test well plate was washed repeatedly for 3 times;
# j. Streptavidin-HRP in a kit was diluted 50 times with a Blocking buffer, 25 μL was taken from each well and added to the test well plate, and incubated at 25° C. for 30 min;
# k. after the incubation was completed, the liquid in the test well plate was spin-dried, and the test well plate was washed repeatedly for 3 times;
# l. ELISA ECL Substrate A and ELISA ECL Substrate B in the kit was mixed to obtain a mixed solution according to a ratio of 1:1, 50 μL of the mixed solution was added to each well of the test well plate, Nivo was used to perform Luminescence detection immediately, and a luminous value (RLU) was read; and
# m. calculation of an enzyme rate: Enzyme Activity=(RLU(Sample)−RLU(Blank))/(RLU(Pos.Ctrl)−RLU(Blank))×100%; and enzyme inhibition rate=1−% Enzyme Activity, and specific results were shown in Table 1 below.
row,IC50,SMILES
1,< 100 nM,"C[C@@H](CN1CC(C(=O)N2CCN(c3ncc(Cl)cn3)CC2)C1)Nc1cn[nH]c(=O)c1C(F)(F)F [I-A-5, (S)-5-((1-(3-(4-(5-chloropyrimidin-2-yl)piperazine-1-carbonyl)azetidin-1-yl)propan-2-yl)amino)-4-(trifluoromethyl)pyridazin-3(2H)-one]"
2,< 100 nM,"C[C@@H](CN1CC(C(=O)N(C)C2CN(c3ncc(C(F)(F)F)cn3)C2)C1)Nc1cn[nH]c(=O)c1C(F)(F)F [I-A-16, (S)-N-methyl-1-(2-((6-oxo-5-(trifluoromethyl)-1,6-dihydropyridazin-4-yl)amino)propyl)-N-(1-(5-(trifluoromethyl)pyrimidin-2-yl)azetidin-3-yl)azetidine-3-carboxamide]"
3,100 to 500 nM,"C[C@@H](CN1CC(C(=O)N2CCN(c3ncc(F)cn3)CC2)C1)Nc1cn[nH]c(=O)c1C(F)(F)F [I-A-8, (S)-5-((1-(3-(4-(5-fluoropyrimidin-2-yl)piperazine-1-carbonyl)azetidin-1-yl)propan-2-yl)amino)-4-(trifluoromethyl)pyridazin-3(2H)-one]"
4,100 to 500 nM,"C[C@@H](CN1CC(C(=O)N2CCN(c3ncc(C(F)(F)F)cn3)CC2)C1)Nc1cn[nH]c(=O)c1Cl [I-A-22, (S)-4-chloro-5-((1-(3-(4-(5-(trifluoromethyl)pyrimidin-2-yl)piperazine-1-carbonyl)azetidin-1-yl)propan-2-yl)amino)pyridazin-3(2H)-one]"
5,< 100 nM,"C[C@@H](CN1CC(C(=O)NC2CN(c3ncc(C(F)(F)F)cn3)C2)C1)Nc1cn[nH]c(=O)c1C(F)(F)F [I-A-15, (S)-1-(2-((6-oxo-5-(trifluoromethyl)-1,6-dihydropyridazin-4-yl)amino)propyl)-N-(1-(5-(trifluoromethyl)pyrimidin-2-yl)azetidin-3-yl)azetidine-3-carboxamide]"
6,< 100 nM,"C[C@@H](Cn1ccc(C(=O)N2CCN(c3ncc(C(F)(F)F)cn3)CC2)c1)Nc1cn[nH]c(=O)c1C(F)(F)F [I-C-1, (S)-4-(trifluoromethyl)-5-((1-(3-(4-(5-(trifluoromethyl)pyrimidin-2-yl)piperazine-1-carbonyl)-1H-pyrrol-1-yl)propan-2-yl)amino)pyridazin-3(2H)-one]"
7,100 to 500 nM,"C[C@@H](CN1CCC(C(=O)N2CCN(c3ncc(C(F)(F)F)cn3)CC2)CC1)Nc1cn[nH]c(=O)c1C(F)(F)F [I-A-19, (S)-4-(trifluoromethyl)-5-((1-(4-(4-(5-(trifluoromethyl)pyrimidin-2-yl)piperazine-1-carbonyl)piperidin-1-yl)propan-2-yl)amino)pyridazin-3(2H)-one]"
8,100 to 500 nM,"C[C@@H](CCN1CC(C(=O)N2CCN(c3ncc(C(F)(F)F)cn3)CC2)C1)Nc1cn[nH]c(=O)c1C(F)(F)F [I-A-21, (S)-4-(trifluoromethyl)-5-((4-(3-(4-(5-(trifluoromethyl)pyrimidin-2-yl)piperazine-1-carbonyl)azetidin-1-yl)butan-2-yl)amino)pyridazin-3(2H)-one]"
9,< 100 nM,"CC1CN(c2ncc(C(F)(F)F)cn2)CC(C)N1C(=O)C1CN(C[C@H](C)Nc2cn[nH]c(=O)c2C(F)(F)F)C1 (stereo partly drawn) [I-A-17, 5-(((2S)-1-(3-(2,6-dimethyl-4-(5-(trifluoromethyl)pyrimidin-2-yl)piperazine-1-carbonyl)azetidin-1-yl)propan-2-yl)amino)-4-(trifluoromethyl)pyridazin-3(2H)-one]"

# Further lines, the compound ahead of its results:
row,SMILES,IC50
1,"C[C@@H](CN1CC(C(=O)N2CCN(c3ncc(Br)cn3)CC2)C1)Nc1cn[nH]c(=O)c1C(F)(F)F [I-A-7, (S)-5-((1-(3-(4-(5-bromopyrimidin-2-yl)piperazine-1-carbonyl)azetidin-1-yl)propan-2-yl)amino)-4-(trifluoromethyl)pyridazin-3(2H)-one]",< 100 nM
2,"C[C@@H](CN1CC(C(=O)N2CCN(c3ncccn3)CC2)C1)Nc1cn[nH]c(=O)c1C(F)(F)F [I-A-14, (S)-5-((1-(3-(4-(pyrimidin-2-yl)piperazine-1-carbonyl)azetidin-1-yl)propan-2-yl)amino)-4-(trifluoromethyl)pyridazin-3(2H)-one]",100 to 500 nM
3,C[C@@H](CN1CC(C(=O)N2CCN(c3cccc4c3oc3ccccc34)CC2)C1)Nc1cn[nH]c(=O)c1C(F)(F)F [I-A-12],100 to 500 nM
4,"O=C(Nc1cccc(CNc2cn[nH]c(=O)c2C(F)(F)F)c1)N1CCN(c2ncc(C(F)(F)F)cn2)CC1 [I-E-7, N-(3-(((6-oxo-5-(trifluoromethyl)-1,6-dihydropyridazin-4-yl)amino)methyl)phenyl)-4-(5-(trifluoromethyl)pyrimidin-2-yl)piperazine-1-carboxamide]",< 100 nM
5,"O=C(C1CN(CC2(Nc3cn[nH]c(=O)c3C(F)(F)F)CC2)C1)N1CCN(c2ncc(C(F)(F)F)cn2)CC1 [I-A-24, 4-(trifluoromethyl)-5-((1-((3-(4-(5-(trifluoromethyl)pyrimidin-2-yl)piperazine-1-carbonyl)azetidin-1-yl)methyl)cyclopropyl)amino)pyridazin-3(2H)-one]",100 to 500 nM
6,"C[C@@H](CN1CC(C(=O)N2CCN(c3ncc(C#N)cn3)CC2)C1)Nc1cn[nH]c(=O)c1C(F)(F)F [I-A-3, (S)-2-(4-(1-(2-((6-oxo-5-(trifluoromethyl)-1,6-dihydropyridazin-4-yl)amino)propyl)azetidine-3-carbonyl)piperazin-1-yl)pyrimidine-5-carbonitrile]",< 100 nM
7,"COc1cnc(N2CCN(C(=O)C3CN(C[C@H](C)Nc4cn[nH]c(=O)c4C(F)(F)F)C3)CC2)nc1 [I-A-9, (S)-5-((1-(3-(4-(5-methoxypyrimidin-2-yl)piperazine-1-carbonyl)azetidin-1-yl)propan-2-yl)amino)-4-(trifluoromethyl)pyridazin-3(2H)-one]",< 100 nM
8,"O=C(NC/C=C/CNc1cn[nH]c(=O)c1C(F)(F)F)N1CCN(c2ncc(C(F)(F)F)cn2)CC1 [I-E-2, (E)-N-(4-((6-oxo-5-(trifluoromethyl)-1,6-dihydropyridazin-4-yl)amino)but-2-en-1-yl)-4-(5-(trifluoromethyl)pyrimidin-2-yl)piperazine-1-carboxamide]",< 100 nM
9,C[C@@H](CN1CC(C(=O)N2CCN(c3ccc(C(F)(F)F)cc3)CC2)C1)Nc1cn[nH]c(=O)c1C(F)(F)F [I-A-11],100 to 500 nM
10,"C[C@@H](CN1CC(C(=O)N2CCN(c3ncc(S(C)(=O)=O)cn3)CC2)C1)Nc1cn[nH]c(=O)c1C(F)(F)F [I-A-4, (S)-5-((1-(3-(4-(5-(methylsulfonyl)pyrimidin-2-yl)piperazine-1-carbonyl)azetidin-1-yl)propan-2-yl)amino)-4-(trifluoromethyl)pyridazin-3(2H)-one]",< 100 nM

# Same assay, conditions: summary of Table 1, read-out: enzyme inhibition IC50 values
row,IC50,SMILES
1,< 100 nM,"O=C(Nc1cccc(CNc2cn[nH]c(=O)c2C(F)(F)F)c1)N1CCN(c2ncc(C(F)(F)F)cn2)CC1 [I-E-7, N-(3-(((6-oxo-5-(trifluoromethyl)-1,6-dihydropyridazin-4-yl)amino)methyl)phenyl)-4-(5-(trifluoromethyl)pyrimidin-2-yl)piperazine-1-carboxamide]"
2,< 100 nM,"O=C(NC/C=C/CNc1cn[nH]c(=O)c1C(F)(F)F)N1CCN(c2ncc(C(F)(F)F)cn2)CC1 [I-E-2, (E)-N-(4-((6-oxo-5-(trifluoromethyl)-1,6-dihydropyridazin-4-yl)amino)but-2-en-1-yl)-4-(5-(trifluoromethyl)pyrimidin-2-yl)piperazine-1-carboxamide]"
3,< 100 nM,"C[C@@H](Cn1ccc(C(=O)N2CCN(c3ncc(C(F)(F)F)cn3)CC2)c1)Nc1cn[nH]c(=O)c1C(F)(F)F [I-C-1, (S)-4-(trifluoromethyl)-5-((1-(3-(4-(5-(trifluoromethyl)pyrimidin-2-yl)piperazine-1-carbonyl)-1H-pyrrol-1-yl)propan-2-yl)amino)pyridazin-3(2H)-one]"
